One data set deals with HepG2 cells. The experiment in a line: HepG2 cytotoxicity assay in galactose media, 72 h, hepatic nuclei count by HCI. Format: cell-based, Homo sapiens. On the procedure:
To assess the general cytotoxicity of GHPB compounds, HepG2 cells were cultured in media containing galactose instead of glucose to avoid false negatives due to the Crabtree effect. Following propagation of HepG2 in T-75 flasks with glucose-containing media as above, media was aspirated, the cell monolayer was washed with PBS, and then cells were trypsinized as above. Released cells were then resuspended in media containing glucose-free DMEM (Gibco, cat 11,966–025) supplemented with 10% FBS (Corning, cat 35–016-CV), 10 mM galactose (Sigma, cat G5388), 1 mM sodium pyruvate (Corning, cat 25–000-CI), 1 × penicillin–streptomycin-neomycin mix (Gibco, cat 15,640–055), and 2 mM L-glutamine (Gibco, cat 25,030–081). The cell density was calculated using trypan blue exclusion on a haemocytometer, diluted to 50 cells/µL, and 40 µL of cells were seeded into collagen-coated 384-well plates (Greiner Bio-One, cat 781,956) using a Biomek NXp (Beckman Coulter), resulting in 2 × 10^3 cells/well. The day after seeding, plates were treated with a pin tool as above and cultured for 72 h. Plates were then fixed with 4% paraformaldehyde, stained with 10 µg/mL Hoechst 33,342, and imaged on an ImageXpress Micro Confocal. Hepatic nuclei were quantified using MetaXpress (Molecular Devices) image analysis software. Both P. berghei liver schizont and HepG2 cytotoxicity data were loaded into CDD Vault for normalization and hit selection as described above. A total of 35 compounds were identified for resupply of fresh powder for confirmation in dose–response assays. […] Powders were diluted to 50 mM in DMSO and plated in 1000 × source plates as described above. […] Separately, two independent runs of the HepG2 cultured in galactose, assayed as described above, were used to assess the cytotoxicity potency and selectivity indices for these compounds. […] Receiver-operator characteristic (ROC) curves were generated using Graphpad Prism and area under the curve (AUC) was calculated using the Wilson/Brown method for both P. berghei liver schizont activity and HepG2 cytotoxicity.

For data set [1], the system named is P. berghei liver schizonts. The experiment in a line: GHPB dose-response confirmation, FLAR luciferase endpoint. Conditions: for Activity (grouping in dose-response confirmation runs): grouped as selectively active, active but with low selectivity, nonselective or inactive. Format: cell-based, Plasmodium berghei. On the procedure: A total of 35 compounds were identified for resupply of fresh powder for confirmation in dose–response assays. […] Powders were diluted to 50 mM in DMSO and plated in 1000 × source plates as described above. MMV390048 and puromycin were plated as the positive control for P. berghei liver schizont activity and cytotoxicity, respectively. Two independent experiments using 1 × FLAR and 5 × 10^3 cells/well were performed to assess the potency of these compounds against P. berghei liver schizonts, each with an independent production run of P. berghei sporozoites. […] Separately, two independent runs of the HepG2 cultured in galactose, assayed as described above, were used to assess the cytotoxicity potency and selectivity indices for these compounds. Both P. berghei liver schizont and HepG2 cytotoxicity data were loaded into CDD Vault for normalization, curve fitting, and EC50 calculations as described above. Receiver-operator characteristic (ROC) curves were generated using Graphpad Prism and area under the curve (AUC) was calculated using the Wilson/Brown method for both P. berghei liver schizont activity and HepG2 cytotoxicity.

Data set [2] deals with P. berghei liver schizonts. The experiment in a line: GHPB single point primary screen, FLAR luciferase endpoint. Conditions: 1 µM; for activity and selectivity in the primary screens: hit = > 80% inhibition of P. berghei and < 15% inhibition of HepG2. Format: cell-based, Plasmodium berghei. On the procedure:
The GHPB is an open-access collection of compounds (80 for vector control, 80 for zoonotic and neglected diseases, 80 for drug resistant malaria) obtained from MMV. The library was supplied in a 96-well microtitre plate and moved into a low-volume 384-well plate (Greiner Bio-One, cat 784,261) using a Biomek NXp to transfer 5 μL of 1 mM compound into the destination wells. MMV390048 (1 µM) was used for the positive control wells and DMSO (0.1% v/v) was used for the negative control wells. The GHPB was screened by seeding 5 × 10^3 cells/well which, after 24 h, were infected with a maximum available inoculum of 1.44 × 10^3 sporozoites/well. Three hours post-infection, plates were treated with a pin tool as described above. After 44 h, media was dumped from the plate, lysed using the freeze/thaw method, and luciferase signal was detected with 1 × FLAR as described above.

The test system of data set [3] is P. berghei liver schizonts. Also on record: method as in PMID 30523084. Conditions: read-out: EC50 against P. berghei liver schizonts (reported); cited from earlier work.

Like-named read-outs stand apart in the source and are kept apart here.

Take `O=C(Nc1ncccc1O)c1ccc(N2CCOCC2)nc1` [MMV1103183]: the “HepG2 Cytotoxicity (pEC50 ± SD)” value with HepG2 cells is reported as 5.03 ± 0.02. Moreover, the “Activity (grouping in dose-response confirmation runs)” value in data set [1] was “active and selective”. Besides, the “activity and selectivity in the primary screens” value in data set [2] is “active and selective”.
One may read the EC50 as the concentration giving half of the maximal effect. In the case of `Cn1cc(CN2CCc3c(c(C(=O)NCc4nccs4)nn3Cc3ccccc3)C2)c2ccccc21` [MMV1167451], in data set [3], the EC50 was 6.3 µM.
Consider `CCCOc1ccc(C(F)(F)F)cc1NC(=O)c1nc2nccc(C)n2n1` [MMV1262756], for which the EC50 in data set [3] was 0.105 µM.
In the case of `Cn1ccnc1SCC(=O)Nc1ccc(C(=O)Nc2ncccc2O)cc1` [MMV1267536], the “HepG2 Cytotoxicity (pEC50 ± SD)” value in the data set with HepG2 cells is 4.83 ± 0.26. Besides, the EC50 in data set [1] (dose-response confirmation, FLAR, read-out: EC50 against P. berghei liver schizonts) was determined as 0.127 µM. The “Activity (grouping in dose-response confirmation runs)” value in data set [1] is “active and selective”. In data set [2] (44 h), the “inhibition of P. berghei liver schizonts in the primary screen” value is 69.1%. Also, the “activity and selectivity in the primary screens” value in data set [2] is given as “not considered hits”.

Values taken from paper PMC11585928, “Screening the Global Health Priority Box against Plasmodium berghei liver stage parasites using an inexpensive luciferase detection protocol” (Malaria Journal, 2024).
